Columns and labels:
Experiment in all cases: Test C greenhouse herbicide test, pre- and postemergence
Assay type in all cases: in vivo
[1] = system: nutsedge, yellow (yellow nutsedge, Cyperus esculentus)
Procedure, shortened: (§1)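 Visual ratings on a 0 to 100 scale (0 = no effect, 100 = complete control) versus untreated controls, scored 13–15 d after treatment. Soil-applied preemergence to seeded loam/sand; foliar postemergence to 1- to 4-leaf plants (2–18 cm) in peat-vermiculite mix; compounds formulated in solvent plus surfactant.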

[2] = system: johnsongrass (Sorghum halepense)
Procedure, shortened: as §1

[3] = system: corn (Zea mays)
Procedure, shortened: as §1

[4] = system: galium (catchweed bedstraw, Galium aparine)
Procedure, shortened: as §1

[5] = system: ryegrass, Italian (Italian ryegrass, Lolium multiflorum)
Procedure, shortened: as §1

[6] = system: foxtail, giant (giant foxtail, Setaria faberii)
Procedure, shortened: as §1

[7] = system: wheat (winter wheat, Triticum aestivum)
Procedure, shortened: as §1

[8] = system: velvetleaf (Abutilon theophrasti)
Procedure, shortened: as §1

[9] = system: crabgrass, large (large crabgrass, Digitaria sanguinalis)
Procedure, shortened: as §1

[10] = system: barnyardgrass (Echinochloa crus-galli)
Procedure, shortened: as §1

[11] = system: blackgrass (Alopecurus myosuroides)
Procedure, shortened: as §1

[12] = system: soybean (Glycine max)
Procedure, shortened: as §1

[13] = Postemergence, 31 g ai/ha, scale 0 to 100 (0 no effect, 100 complete control)
[14] = Postemergence, 62 g ai/ha, 0 to 100 scale (0 no effect, 100 complete control)
[15] = Postemergence, 250 g ai/ha, scale 0 to 100, 0 no effect, 100 complete control, 13 to 15 d
[16] = Preemergence, 31 g ai/ha, scale 0 to 100, 0 is no effect, 100 is complete control
[17] = Preemergence, 62 g ai/ha, scale 0 to 100, 0 is no effect, 100 is complete control
[18] = Preemergence, 125 g ai/ha, scale 0 to 100, 0 is no effect, 100 is complete control
[19] = Preemergence, 250 g ai/ha, scale 0 to 100, 0 no effect, 100 complete control
[20] = postemergence, 125 g ai/ha, scale 0 to 100, 0 no effect, 100 complete control

Cc1nn(C)c(=O)c(-c2ccc(Cl)c3ccccc23)c1O [Compound 139]
Plant response rating, Nutsedge, Yellow [1, 13]: 55 | Nutsedge, Yellow plant response rating [1, 14]: 75 | Plant response rating, Nutsedge, Yellow [1, 15]: 85 | Plant response rating, Nutsedge, Yellow [1, 16]: 65 | Plant response rating, Nutsedge, Yellow [1, 17]: 60 | Plant response rating, Nutsedge, Yellow [1, 18]: 85 | Nutsedge, Yellow plant response rating [1, 19]: 90 | Nutsedge, Yellow plant response rating [1, 20]: 70 | Plant response rating, Johnsongrass [2, 13]: 5 | Johnsongrass plant response rating [2, 14]: 5 | Plant response rating, Johnsongrass [2, 15]: 25 | Plant response rating, Johnsongrass [2, 16]: 5 | Plant response rating, Johnsongrass [2, 17]: 35 | Plant response rating, Johnsongrass [2, 18]: 35 | Johnsongrass plant response rating [2, 19]: 25 | Johnsongrass plant response rating [2, 20]: 15 | Plant response rating, Corn [3, 13]: 5 | Corn plant response rating [3, 14]: 0 | Plant response rating, Corn [3, 15]: 15 | Plant response rating, Corn [3, 16]: 0 | Plant response rating, Corn [3, 17]: 0 | Plant response rating, Corn [3, 18]: 10 | Corn plant response rating [3, 19]: 15 | Corn plant response rating [3, 20]: 15 | Plant response rating, Galium [4, 13]: 95 | Galium plant response rating [4, 14]: 95 | Plant response rating, Galium [4, 15]: 100 | Plant response rating, Galium [4, 16]: 90 | Plant response rating, Galium [4, 17]: 90 | Plant response rating, Galium [4, 18]: 100 | Galium plant response rating [4, 19]: 100 | Galium plant response rating [4, 20]: 100 | Plant response rating, Ryegrass, Italian [5, 13]: 5 | Ryegrass, Italian plant response rating [5, 14]: 10 | Plant response rating, Ryegrass, Italian [5, 15]: 60 | Plant response rating, Ryegrass, Italian [5, 16]: 95 | Plant response rating, Ryegrass, Italian [5, 17]: 100 | Plant response rating, Ryegrass, Italian [5, 18]: 100 | Ryegrass, Italian plant response rating [5, 19]: 100 | Ryegrass, Italian plant response rating [5, 20]: 35 | Plant response rating, Foxtail, Giant [6, 13]: 20 | Foxtail, Giant plant response rating [6, 14]: 30 | Plant response rating, Foxtail, Giant [6, 15]: 60 | Plant response rating, Foxtail, Giant [6, 16]: 35 | Plant response rating, Foxtail, Giant [6, 17]: 65 | Plant response rating, Foxtail, Giant [6, 18]: 85 | Foxtail, Giant plant response rating [6, 19]: 95 | Foxtail, Giant plant response rating [6, 20]: 30 | Plant response rating, Wheat [7, 13]: 45 | Wheat plant response rating [7, 14]: 55 | Plant response rating, Wheat [7, 15]: 90 | Plant response rating, Wheat [7, 16]: 0 | Plant response rating, Wheat [7, 17]: 10 | Plant response rating, Wheat [7, 18]: 15 | Wheat plant response rating [7, 19]: 10 | Wheat plant response rating [7, 20]: 60 | Plant response rating, Velvetleaf [8, 13]: 70 | Velvetleaf plant response rating [8, 14]: 80 | Plant response rating, Velvetleaf [8, 15]: 100 | Plant response rating, Velvetleaf [8, 16]: 60 | Plant response rating, Velvetleaf [8, 17]: 85 | Plant response rating, Velvetleaf [8, 18]: 100 | Velvetleaf plant response rating [8, 19]: 100 | Velvetleaf plant response rating [8, 20]: 95 | Plant response rating, Crabgrass, Large [9, 13]: 20 | Crabgrass, Large plant response rating [9, 14]: 10 | Plant response rating, Crabgrass, Large [9, 15]: 40 | Plant response rating, Crabgrass, Large [9, 16]: 5 | Plant response rating, Crabgrass, Large [9, 17]: 30 | Plant response rating, Crabgrass, Large [9, 18]: 20 | Crabgrass, Large plant response rating [9, 19]: 50 | Crabgrass, Large plant response rating [9, 20]: 30 | Plant response rating, Barnyardgrass [10, 13]: 25 | Barnyardgrass plant response rating [10, 14]: 20 | Plant response rating, Barnyardgrass ([10]; Postemergence, 125 g ai/ha, scale 0 to 100, 0 is no effect, 100 is complete control): 40 | Plant response rating, Barnyardgrass [10, 15]: 60 | Plant response rating, Barnyardgrass [10, 16]: 20 | Plant response rating, Barnyardgrass [10, 17]: 55 | Plant response rating, Barnyardgrass [10, 18]: 75 | Barnyardgrass plant response rating [10, 19]: 95 | Plant response rating, Blackgrass [11, 13]: 20 | Blackgrass plant response rating [11, 14]: 50 | Plant response rating, Blackgrass [11, 15]: 10 | Plant response rating, Blackgrass [11, 16]: 50 | Plant response rating, Blackgrass [11, 17]: 55 | Plant response rating, Blackgrass [11, 18]: 60 | Blackgrass plant response rating [11, 19]: 90 | Blackgrass plant response rating [11, 20]: 60 | Plant response rating, Soybean [12, 13]: 45 | Soybean plant response rating [12, 14]: 55 | Plant response rating, Soybean [12, 15]: 60 | Plant response rating, Soybean [12, 16]: 25 | Plant response rating, Soybean [12, 17]: 35 | Plant response rating, Soybean [12, 18]: 60 | Soybean plant response rating [12, 19]: 80 | Soybean plant response rating [12, 20]: 65

Source: US10597388B2, “Pyridazinone herbicides” (FMC CORPORATION, priority 2014, dated 2020)
